In US20230203126A1, “A COMPOSITION COMPRISING S-ARRESTIN PEPTIDES” (WORG PHARMACEUTICALS (HANGZHOU) CO., LTD., priority 2019, published 2023):
No end group written: not given here.

Experiments:
[1] = tested on: MHC II molecules on dendritic cells (CD11c+ cells); test: In vivo MHC class II loading assay (DR2tg mice); set-up: species or system HLA-DR2-transgenic mice; settings: 100 µg peptide s.c., spleen 2 h post injection, 72 h co-culture, vs PBS-injected control
Procedure: (§1) FIG. 1: Peptide 9K1K is correctly loaded on MHC class II in vivo. Response of peptide-specific CD4+ T cells towards peptide loaded in vivo on dendritic cells is shown. HLA-DR2-transgenic mice were injected subcutaneously with 100 µg of 9K1K peptide. 2 h post injection, spleens were dissected and CD11 c+ cells (dendritic cells) were isolated. These CD11c+ cells were co-cultured with peptide-specific CD4+ cells for 72 h at 37° C. IFNy was measured in the supernatant of these cultures to evaluate the response to peptide by the CD4+ T cells. (* p<0.05 Mann-Whitney U-test)
When 100 µg of peptide 9K1K was injected in DR2tg mice or when peptide 17JK or 15N3K was injected in DR3tg mice, these peptides could be detected on dendritic cells (CD11c+ cells) in the spleens of these mice 2 h post injection. Activation (IFNY production) of peptide-specific CD4+ T cells by the isolated CD11 c+ cells was used as a read-out. […]
(§2) DR3tg or DR2tg mice were injected with 100 µg of peptide in 100 µl PBS subcutaneously (s.c.) in the flank. […] After 72 hours, supernatant of these co-cultures was collected and CD4+ T cell activation was analysed by IFNy ELISA (R&D Systems, Abingdon, UK). In a parallel experiment, CD4+ T cell responses towards peptide added in vitro were assessed to make sure the T cells recognize the peptides presented by the CD11 c+ cells.

[2] = tested on: S-Ag-induced cell activation (IFNy production of LN cells and splenocytes); test: Ex vivo tolerization experiment (DR2tg mice); assay type: in vivo
Procedure: FIG. 4: 9K1K alone induces tolerance towards S-Ag protein in DR2tg mice. Mice were injected subcutaneously in the flank with 0,1 µg/ml, 1 µg/ml and 10 µg/ml 9K1K on days -15, -13 and -11, followed by 3 injections of 100 µg/ml on days -8, -6 and -4 (escalating dose regime). On day 0, mice were immunized subcutaneously at the base of the tail with antigen/CFA. Mice were sacrificed 10 days after immunization to measure activation of LN cells and splenocytes upon S-Ag restimulation. IFNy concentration was measured in the culture supernatant as an indication of cell activation. Data represent mean ± SEM of the concentration of IFNy for the PBS-treated mice (black lines) and 9K1K-treated mice (grey lines). Two-way ANOVA was used to measure overall treatment effects on T cell activation. Dunnett’s multiple comparisons test was used and significant differences are indicated in the graphs (** p<0.01; **** p<0.0001). The % inhibition of IFNy production as compared to the control group is indicated in the graphs. (A) Tolerization against S-Ag in LN. IFNy production expressed as IFNy concentration (pg/ml). (B) Tolerization against S-Ag in spleen. IFNy production expressed as IFN-Y concentration (pg/ml). LN, lymph nodes. Data representative of 3 independent experiments.
FIG. 8: Treatment with peptide cocktail ATX975 reduces S-Ag-induced immune cell activation in DR2tg mice more efficiently than treatment with 9K1K alone. Mice were injected subcutaneously in the flank with 0.015 nmol, 0.15 nmol and 1.5 nmol of peptide on days -15, -13 and -11 respectively, followed by 3 injections of 15 nmol peptide on days -8, -6 and -4 (dose escalation schedule). For treatment with the cocktail (ATX975) containing 3 peptides, these doses were given per peptide (reaching a total top dose of 45 nmol peptide). On day 0, mice were immunized subcutaneously at the base of the tail with antigen/CFA. Mice were sacrificed 10 days after immunization to measure activation of splenocytes upon S-Ag restimulation. […] IFN-y production expressed as IFN-y concentration (pg/ml). […]

[3] = molecular target: HLA-DRA1*0101, DRB1*1501 (DR2) (Homo sapiens, UniProt P01903+P01911); test: DR2
Procedure: Table printed on a drawing sheet, Figure 9
The patent's description of the figure: FIG. 9: Diverse patterns of in vitro peptide-MHC II binding for peptides 9K1, 17JK and 15N3K. Binding of peptides 9K1, 17JK and 15N3K to recombinant HLA-DRA1*0101, DRB1*0101 (DR1), DRB1*1501 (DR2), DRB1*0301 (DR3), DRB1*0401 (DR4), DRB1*1101 (DR11), DRB1*0405 (DR4*05) and DRB1*0901 (DR9) was assessed in vitro. IC50 values (µM) are presented and colour-coded per HLA-DR molecule. Low values (green) indicate strong binding, high values (red) indicate low(er) binding.
FIG. 9 depicts IC50 (µM) values of peptides 9K1K, 17JK and 15N3K binding to the indicated HLA-DR molecules and competing with a known competitor peptide. Values should be compared only within each HLA-DR molecule. Low IC50 values (green) indicate the strongest binder per HLA-DR molecule. Highest values per HLA-DR molecule (red) are indicative of the lowest binder for that HLA-DR molecule. Intermediate values are indicated in orange. […]
First copying reader's note: The sheet prints no unit; per the patent description the values are IC50 (µM) for peptide binding to the named HLA-DR molecules, with cell shading coding relative binding strength per HLA-DR molecule.
Where the first naming reader finds the target: description_of_the_figure: recombinant HLA-DRA1*0101, DRB1*0101 (DR1), DRB1*1501 (DR2)

[4] = molecular target: T1, HLA-DR2 (DRA*0101 and DRB1*1501) on CD11c+ dendritic cells of DR2tg mice (human, UniProt P01903 26-254; P01911 30-266); test: in vivo MHC class II loading assay, DR2tg mice, read out by IFNy of peptide-specific CD4+ T cells
T1 construct: whole, on cells; DR2tg mice express the HLA-DRB1*1501 molecule but not the mouse MHC class II molecule; also called MHC class II; MHC II molecules
Procedure: as §1
as §2, with “flank. Control animals received a s.c. injection of 100 µl PBS. After 2 hours, spleens were harvested and single-cell suspensions were prepared. CD11 c+ cells were positively selected using CD11c microbeads according to the manufacturer’s instructions (Miltenyi Biotec, Bergisch Gladbach, Germany). Average purities of >92% were reached.” for “flank.”

[5] = molecular target: T2, HLA-DR3 (HLA-DRA and DRB1*0301) on CD11c+ dendritic cells of DR3tg mice (human, UniProt P01903 26-254; P79483 30-266); test: in vivo MHC class II loading assay, DR3tg mice, read out by IFNy of peptide-specific CD4+ T cells
T2 construct: whole, on cells; DR3tg mice express the HLA-DRB1*0301 molecule but not the mouse MHC-II molecule; also called MHC class II; MHC II molecules
T2 MHC II alpha: not shown
T2 MHC II beta: not shown
Procedure: as §1, with “2:” for “1:”, “17JK” for “9K1K”, “HLA-DR3-transgenic” for “HLA-DR2-transgenic”, “CD11c+” for “CD11 c+”, “(*** p<0.001” for “(* p<0.05”
FIG. 3: Peptide 15N3K is correctly loaded on MHC class II in vivo. Response of peptide-specific CD4+ T cells towards peptide loaded in vivo on dendritic cells is shown. HLA-DR3-transgenic mice were injected subcutaneously with 100 µg of 15N3K peptide. 2h post injection, spleens were dissected and CD11c+ cells (dendritic cells) were isolated. These CD11c+ cells were co-cultured with peptide-specific CD4+ cells for 72 h at 37° C. IFNy was measured in the supernatant of these cultures to evaluate the response to peptide by the CD4+ T cells. (*** p<0.001 Mann-Whitney U-test)
DR3tg or DR2tg mice were injected with 100 µg of peptide in 100 µl PBS subcutaneously (s.c.) in the flank. Control animals received a s.c. injection of 100 µl PBS. After 2 hours, spleens were harvested and single-cell suspensions were prepared. […]

KKKAFVEQVANVVLKKK-NH2 [9K1K, KKKAFVEQVANVVLKKK]
CD4+ T cell activation (IFNy) by CD11c+ cells isolated from spleen of injected mice [1]: significant CD4+ T cell activation | reduction of S-Ag-induced cell activation (IFNy) in spleens ([2]; dose escalation to 15 nmol per peptide s.c., cocktail vs single peptide, vs control mice (FIG. 8)): 51% | reduction of S-Ag-induced cell activation (IFNy) in lymph nodes ([2]; single peptide escalating dose s.c., vs PBS, 10 days after immunization (FIG. 4A)): 77% | reduction of S-Ag-induced cell activation (IFNy) in spleen ([2]; single peptide escalating dose s.c., vs PBS, 10 days after immunization (FIG. 4B)): 70% | IC50 [3]: 0.52 µM

B1: 9K1K (peptide)
peptide: H-KKKAFVEQVANVVLKKK-NH2
notes: Synthetic S-Ag (S-arrestin) derived peptide with KKK added at both ends
binding result [4]: binds

B2: 17JK (peptide)
peptide: H-KKKLTFRRDLYFSRVQVYKKK-NH2
notes: Synthetic S-Ag derived peptide with KKK added at both ends
binding result [5]: binds

B3: 15N3K (peptide)
peptide: H-KKKVIFKKISRDKSVTIYLGKKK-NH2
notes: as for B2
binding result [5]: binds
